From patent US4694008A, “Chemical compounds” (Smith Kline & French Laboratories Limited, priority 1984, dated 1987)

How the values were obtained:
histamine H2 -receptors [1] = assay: inhibition of histamine-induced tachycardia in the isolated guinea pig right atrium
Text: (§1) The measurement of inhibition of histamine-stimulated secretion of gastric acid from the lumen-perfused stomachs of rats anaesthetised with urethane, and the measurement of inhibition of histamine-induced tachycardia in the isolated guinea pig right atrium, are detailed in U.S. Pat. No. 4,385,058.

histamine H2 -receptors [2] = target: T1, histamine H2 -receptors (Rattus norvegicus, UniProt P25102); assay: inhibition of histamine-stimulated secretion of gastric acid, lumen-perfused stomachs of rats anaesthetised with urethane; format: in vivo; conditions: iv, read-out: ED50 values in the lumen-perfused rat test
T1 construct: histamine-stimulated secretion of gastric acid from the lumen-perfused stomachs of rats anaesthetised with urethane; from tissue; host or cells: stomach of the anaesthetised rat (in vivo, lumen-perfused)
Text: These are actions of histamine which, according to Ash and Schild, Brit. J. Pharmac. Chemother. 27 247 (1966), are not mediated by histamine H1 -receptors.
as §1

T1 sequence (P25102 whole entry, the tested form may be a part): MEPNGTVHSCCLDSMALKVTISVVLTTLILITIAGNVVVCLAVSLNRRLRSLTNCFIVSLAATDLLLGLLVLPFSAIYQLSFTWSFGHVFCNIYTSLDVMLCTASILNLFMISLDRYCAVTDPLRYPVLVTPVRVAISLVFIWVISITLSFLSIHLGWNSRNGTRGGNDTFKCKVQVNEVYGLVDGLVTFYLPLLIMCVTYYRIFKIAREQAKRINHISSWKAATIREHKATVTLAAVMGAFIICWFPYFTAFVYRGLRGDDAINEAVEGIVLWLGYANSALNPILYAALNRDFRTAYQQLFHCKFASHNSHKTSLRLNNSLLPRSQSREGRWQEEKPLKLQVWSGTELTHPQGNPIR

| ED50 (histamine H2 -receptors [2]) [µmol/kg] | SMILES | pA2 values in the guinea pig atrium test (histamine H2 -receptors [1]) |
| --- | --- | --- |
| < 0.1 | O=c1[nH]c(CCCOc2cccc(CN3CCCCC3)c2)ncc1OCc1ccccc1 [Example 1, 2-[3-[3-(Piperidinomethyl)phenoxy]propyl]-5-benzyloxypyrimidin-4-one] | more than seven |
| < 0.1 | COc1cnc(NCCCOc2cccc(CN3CCCCC3)c2)[nH]c1=O [Example 5, 2-[3-[3-(Piperidinomethyl)phenoxy]propylamino]-5-methoxypyrimidin-4-one] | more than seven |
